Results reported in patent publication US11471462B2, “Compositions and methods for detecting and treating diabetes” (THE BROAD INSTITUTE, INC., priority 2016, dated 2022).

Key:
[1] = system: SLC16A11; test: Compound treatment, SLC16A11 expression by ddPCR in SNU761 cells; format: cell-based, human; conditions: SNU761 cells; same doses and treatment times as in the LINCS dataset
Description: A small number of the compounds that made the strongest positive connections to the SLC16A11 gene expression signature were selected and tested. […] Methotrexate was also included, which had been annotated as a dihydrofolate reductase inhibitor. SNU761 cells (derived from a human hepatocellular carcinoma) and NCIH716 cells (derived from a human cecum adenocarcinoma), which both express SLC16A11, were treated with the compounds. The same compound concentrations and treatment times were used as in the LINCS dataset experiments. […] For normalization, a different housekeeper gene, HPRT1, was used and obtained similar results with the mTOR inhibitors (FIGS. 14A and 14B).
From the total list of compounds, 59 readily available compounds were selected from the 79 compounds with the largest connectivity scores to the query signature and 20 middle compounds with connectivity scores centered on 0 (FIG. 15A) and then treated SNU761 cells at the same doses and treatment times as were used in the LINCS dataset. It was expected that the top compounds would be enriched for compounds that increased SLC16A11 expression. […] The results were aligned with the expectations (FIG. 15B). Hierarchical clustering of the SLC16 expression profiles generated by the compound treatments are shown by the heat map in FIG. 15C.
SNU761 (human hepatocellular carcinoma) and NCIH716 (human cecum adenocarcinoma) were cultured in RPMI Medium 1640 supplemented with 10% Fetal Bovine Serum (FBS), 100 μg/ml Streptomycin and 100 U/ml Penicillin. Cells were grown in a humidified CO2 incubator, at 37° C.
For the unbiased approach taken to investigate the compounds that connected to the SLC16A11 gene expression signature, compounds were obtained from compound management at the Broad Institute.
SNU761 and NCIH716 cells were plated into 96 well plates at a density of 20,000 cells per well. Hepatocytes were plated into collagen coated 96 well plates (Corning, 354408) at a density of 50,000 cells per well. After 24 hours, cells were treated with compounds at a final concentration of 10 μM or vehicle control for the appropriate amount of time.
At the time of collection, cells in 96 well plates were lysed by directly adding 50 μL of RLT buffer (Qiagen). 75 μL of AMPure XP beads, diluted by a factor of 5 in polyethylene glycol, were then added to bind nucleic acids. One wash with polyethylene glycol was then performed. DNase treatment (Qiagen) was carried out according to the manufacturer's protocol in a final volume of 50 μL. 100 μL of polyethylene glycol was added after the DNase treatment to crowd nucleic acids back onto the beads. Two washes with 80% ethanol were performed and residual ethanol was removed. RNA was then eluted in water.
RNA was DNase treated and converted into cDNA using the High-Capacity RNA-to-cDNA kit (Thermo Fisher Scientific). The following FAM-labeled TaqMan Real-Time PCR assays (Thermo Fisher Scientific) were used to quantify gene expression: SLC16A11 (Hs00601062_g1), SLC16A13 (Hs00416832_m1), SLC16A1 (Hs01560299_m1). The VIC-labeled TaqMan Real-Time assays TBP (Hs00427620_m1) or HPRT1 (Hs02800695_m1) were used for normalization. Droplets were generated and analyzed using a QX200 Droplet Generator and Reader system (BioRad). Data was extracted using QuantaSoft (BioRad) and analyzed using Microsoft Excel.

[2] = system: SLC16A11; test: CRISPR (SAM) transactivation assay, SLC16A11 expression in 293T cells; format: cell-based, human; conditions: Cas9-based transactivators (SAM) targeted near variant
Source text: These experiments are based upon Cas9 based transactivators (SAM or synergistic activation mediators) as described in Konermann et al (Nature 517: 583-588, 2015). Similar experiments based on other types of transactivators that are more finely tuned to distal activation such as those described in Hilton et al. (Nature 33:510-518, 2015) could also be envisioned. Cas9 was used to target transactivators to sites near individual variants in the credible set. Their ability to activate SLC16A11 gene expression was assessed (Table 10).
Cell lines derived from HEK293-T cells were established by lentivirus infection resulting in stable integration of two components of the SAM system namely dCas9-VP64 and MS2-p65-HSF1. The resulting stable cell lines were then plated into 96 well plates and left overnight. The next day, cells were transfected with the guide RNAs (pHKO23), the final component of the SAM system. After an additional 48 hours, cells were harvested for gene expression analyses.

| Compound | avg_fc (SLC16A11 expression, compound treated vs DMSO treated cells) [1] | Increases SLC16A11 transcript levels in transactivator assay [2] |
| --- | --- | --- |
| Nc1nc(Cl)nc2c1ncn2[C@H]1C[C@H](O)[C@@H](CO)O1 [cladribine] | 0.5994 | – |
| CN1CCN(C2=Nc3cc(Cl)ccc3Nc3ccccc32)CC1 [clozapine] | 0.9466 | – |
| C[C@@H]1C[C@@H]([C@H](O)CC2CC(=O)NC(=O)C2)C(=O)[C@@H](C)C1 [cycloheximide] | 1.243 | – |
| CO[C@H]1C[C@@H]2CC[C@@H](C)[C@@](O)(O2)C(=O)C(=O)N2CCCC[C@H]2C(=O)O[C@H]([C@H](C)C[C@@H]2CC[C@@H](OP(C)(C)=O)[C@H](OC)C2)CC(=O)[C@H](C)/C=C(\C)[C@@H](O)[C@@H](OC)C(=O)[C@H](C)C[C@H](C)/C=C/C=C/C=C/1C [deforolimus, reference compound] | 1.903 | – |
| C[C@H]1O[C@@H](O[C@H]2[C@@H](O)C[C@H](O[C@H]3[C@@H](O)C[C@H](O[C@H]4CC[C@@]5(C)[C@H](CC[C@@H]6[C@@H]5CC[C@]5(C)[C@@H](C7=CC(=O)OC7)CC[C@]65O)C4)O[C@@H]3C)O[C@@H]2C)C[C@H](O)[C@@H]1O [digitoxin] | 1.375 | – |
| Clc1ccc(COC(Cn2ccnc2)c2ccc(Cl)cc2Cl)cc1 (stereo not shown) [econazole] | 1.178 | – |
| O=C1OC2(c3ccccc31)c1cc(I)c(O)c(I)c1Oc1c2cc(I)c(O)c1I [erythrosine] | 0.649 | – |
| COc1cc(Nc2ncc(F)c(Nc3ccc4c(n3)N(COP(=O)(O)O)C(=O)C(C)(C)O4)n2)cc(OC)c1OC [fostamatinib] | 3.274 | – |
| COc1ccc2ccc(=O)oc2c1 [herniarin] | 0.9563 | – |
| O=C1N(c2ccccc2)c2ccccc2C1(Cc1ccncc1)Cc1ccncc1 [linopirdine] | 0.8629 | – |
| Cc1cnc(NC(=O)C2=C(O)c3ccccc3S(=O)(=O)N2C)s1 [meloxicam] | 0.9414 | – |
| O=C1CC[C@@]2(O)[C@H]3Cc4ccc(O)c5c4[C@@]2(CCN3CC2CC2)[C@H]1O5 [naltrexone] | 1.183 | – |
| COc1ccc(-c2cc(=O)c3c(OC)c(OC)c(OC)c(OC)c3o2)cc1OC [nobiletin] | 1.129 | – |
| CC[C@@H]1C(=O)OC[C@@H]1Cc1cncn1C [pilocarpine] | 0.7379 | – |
| OCCOCCN1CCN(C2=Nc3ccccc3Sc3ccccc32)CC1 [quetiapine] | 1.019 | – |
| COc1ccccc1OCC(O)CN1CCN(CC(=O)Nc2c(C)cccc2C)CC1 (stereo not shown) [ranolazine] | 0.7654 | – |
| CO[C@H]1C[C@@H]2CC[C@@H](C)[C@@](O)(O2)C(=O)C(=O)N2CCCC[C@H]2C(=O)O[C@H]([C@H](C)C[C@@H]2CC[C@@H](O)[C@H](OC)C2)CC(=O)[C@H](C)/C=C(\C)[C@@H](O)[C@@H](OC)C(=O)[C@H](C)C[C@H](C)/C=C/C=C/C=C/1C [rapamycin, reference compound] | 1.662 | – |
| c1nc2nc(Nc3ccc(N4CCOCC4)cc3)nc(NC3CCCCC3)c2[nH]1 [reversine] | 3.235 | – |
| Cn1cnc2c(F)c(Nc3ccc(Br)cc3Cl)c(C(=O)NOCCO)cc21 [selumetinib] | 1.964 | – |
| c1ccc2c(CCNc3ccc(Nc4ccncc4)cc3)c[nH]c2c1 [serdemetan] | 0.6384 | – |
| CO[C@H]1C[C@@H]2CC[C@@H](C)[C@@](O)(O2)C(=O)C(=O)N2CCCC[C@H]2C(=O)O[C@H]([C@H](C)C[C@@H]2CC[C@@H](OC(=O)C(C)(CO)CO)[C@H](OC)C2)CC(=O)[C@H](C)/C=C(\C)[C@@H](O)[C@@H](OC)C(=O)[C@H](C)C[C@H](C)/C=C/C=C/C=C/1C [temsirolimus] | 1.372 | – |
| COc1cc2nccc(Oc3ccc(NC(=O)Nc4cc(C)on4)c(Cl)c3)c2cc1OC [tivozanib] | 1.647 | – |

| Compound | avg_fc (SLC16A11 expression, compound treated vs DMSO treated cells) [1] | Increases SLC16A11 transcript levels in transactivator assay [2] |
| --- | --- | --- |
| CCC(=O)N1CCN(c2ccc(-n3c(=O)ccc4cnc5ccc(-c6cnc7ccccc7c6)cc5c43)cc2C(F)(F)F)CC1 [torin-1] | 2.84 | – |
| Nc1ccc(-c2ccc3ncc4ccc(=O)n(-c5cccc(C(F)(F)F)c5)c4c3c2)cn1 [torin-2] | 2.843 | – |
| N#CC(C#N)=C(N)/C(C#N)=C/c1ccc(O)cc1 [tyrphostin-AG-112] | 0.7594 | – |
| Cc1onc(-c2ccccc2)c1-c1ccc(S(N)(=O)=O)cc1 [valdecoxib] | 1.069 | – |
| CCCS(=O)(=O)Nc1ccc(F)c(C(=O)c2c[nH]c3ncc(-c4ccc(Cl)cc4)cc23)c1F [vemurafenib] | 1.368 | – |
| Nc1ccn([C@H]2CC[C@@H](CO)O2)c(=O)n1 [zalcitabine] | 1.01 | – |
| ACGGAAACTGGCGCGCTCCA (chemistry not given here) | – | TRUE |
| CTATTTCCACGCGTTGGCGG (chemistry not given here) | – | TRUE |
| GCGGGATTTAGGCATTGTTG (chemistry not given here) | – | TRUE |
| GGCTGCGTGTTAGTGGCTTC (chemistry not given here) | – | TRUE |
| GTACATAATTCAATCCCCGT (chemistry not given here) | – | TRUE |
| TCACGCGCGGCTTGCCGGAT (chemistry not given here) | – | TRUE |
| TGGCAGTCCCCGCGTCACGT (chemistry not given here) | – | TRUE |
| TGGCTCTGGGTGCTGAAACG (chemistry not given here) | – | TRUE |
| TGTTCTCAGGAACGTTGCCG (chemistry not given here) | – | TRUE |
| TTACAGGCTTGCACCGCGCC (chemistry not given here) | – | TRUE |
| bisindolylmaleimide | 0.4265 | – |
| rs191133 (guide 1 TGAAAGTAAGTCAATCATGG; guide 2 ATGATTGACTTACTTTCATC; listed as DNA, chemistry not given here; listed as Homo sapiens) | – | FALSE |
| rs193399 (guide 1 TAGAACCAGCTTCTAGGTTC; guide 2 TCCTTCCTGAACCTAGAAGC; listed as DNA, chemistry not given here; listed as Homo sapiens) | – | FALSE |
| rs312457 (guide 1 TGATGAAACCTGGCCGGGCA; guide 2 GTGAGCCACCGTGCCCGGCC; listed as DNA, chemistry not given here; listed as Homo sapiens) | – | FALSE |
| rs1698227 (guide 1 TGGTGCTAAGGGGCACACAC; guide 2 TGCTCATTTTCCTCTGCACT; listed as DNA, chemistry not given here; listed as Homo sapiens) | – | FALSE |
